In patent US20150105252A1, “SUBSTITUTED PYRAZOLES AS HERBICIDES” (E I DU PONT DE NEMOURS AND COMPANY, priority 2013, published 2015):

How the values were obtained:
barnyardgrass [1] = experiment: Test A preemergence; type: in vivo, Echinochloa crus-galli; conditions: preemergence; for Barnyardgrass plant response rating (0 to 100 scale, 0 is no effect, 100 is complete control): 125 g ai/ha, visual injury approx. 10 days after treatment; for Barnyardgrass plant response rating: 500 g ai/ha, visual injury after approx. 10 days, 0 to 100 scale (0 no effect, 100 complete control)
How it was run: (§1)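 Growth medium: loam soil blended with sand. Preemergence treatment used a directed soil spray right after planting; postemergence treatment targeted seedlings at one to two leaves (2–10 cm height). Response was judged by eye relative to untreated plants about 10 days later on a 0–100 control scale.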

crabgrass, large [2] = experiment: Test A preemergence; type: in vivo, Digitaria sanguinalis; conditions: preemergence; for Crabgrass, Large plant response rating (0 to 100 scale): 125 g ai/ha, visual injury approx. 10 days after treatment; for Crabgrass, Large plant response rating: 500 g ai/ha, visual injury after approx. 10 days, 0 to 100 scale (0 no effect, 100 complete control)
How it was run: as §1

morningglory = experiment: Test A preemergence; type: in vivo, Ipomoea spp.; conditions: preemergence; for Morningglory plant response rating (0 to 100 scale): 125 g ai/ha, visual injury approx. 10 days after treatment; for Morningglory plant response rating: 500 g ai/ha, visual injury after approx. 10 days, 0 to 100 scale (0 no effect, 100 complete control)
How it was run: as §1

pigweed [3] = experiment: Test A preemergence; type: in vivo, Amaranthus retroflexus; conditions: preemergence; for Pigweed plant response rating (0 to 100 scale): 125 g ai/ha, visual injury approx. 10 days after treatment; for Pigweed plant response rating: 500 g ai/ha, visual injury after approx. 10 days, 0 to 100 scale (0 no effect, 100 complete control)
How it was run: as §1

velvetleaf [4] = experiment: Test A preemergence; type: in vivo, Abutilon theophrasti; conditions: preemergence; for Velvetleaf plant response rating (0 to 100 scale): 125 g ai/ha, visual injury approx. 10 days after treatment; for Velvetleaf plant response rating: 500 g ai/ha, visual injury after approx. 10 days, 0 to 100 scale (0 no effect, 100 complete control)
How it was run: as §1

corn [5] = experiment: Test A preemergence; type: in vivo, Zea mays; conditions: preemergence; for Corn plant response rating (0 to 100 scale): 125 g ai/ha, visual injury approx. 10 days after treatment; for Corn plant response rating: 500 g ai/ha, visual injury after approx. 10 days, 0 to 100 scale (0 no effect, 100 complete control)
How it was run: as §1

barnyardgrass [6] = experiment: Test A postemergence; type: in vivo, Echinochloa crus-galli
How it was run: as §1

crabgrass, large [7] = experiment: Test A postemergence; type: in vivo, Digitaria sanguinalis
How it was run: as §1

pigweed [8] = experiment: Test A postemergence; type: in vivo, Amaranthus retroflexus; conditions: Postemergence
How it was run: as §1

velvetleaf [9] = experiment: Test A postemergence; type: in vivo, Abutilon theophrasti; conditions: Postemergence
How it was run: as §1

rice = experiment: Test B flood; type: in vivo, Oryza sativa; conditions: 250 g ai/ha, visual rating on 0 to 100 scale (0 no effect, 100 complete control), 13 to 15 days
How it was run: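 Visual ratings on a 0–100 scale, where 0 means no effect and 100 means complete control, were assigned by comparison with controls 13 to 15 days after treatment. Compounds went into paddy water over 2-leaf plants flooded to 3 cm.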

blackgrass = experiment: Test C preemergence; type: in vivo, Alopecurus myosuroides; conditions: preemergence; for Plant response rating, Blackgrass: 125 g ai/ha, scale 0 to 100, 0 = no effect, 100 = complete control
How it was run: (§2)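 Greenhouse pot test: preemergence application onto freshly seeded loam/sand mix, postemergence application onto seedlings (1–4 leaves, 2–18 cm) in peat-vermiculite substrate. Responses scored visually 13 to 15 days later relative to controls, where 0 means no effect and 100 means complete control; a dash indicates no result.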

wheat = experiment: Test C preemergence; type: in vivo, Triticum aestivum; conditions: preemergence; for Plant response rating, Wheat: 125 g ai/ha, scale 0 to 100, 0 = no effect, 100 = complete control
How it was run: as §2

corn [10] = experiment: Test C preemergence; type: in vivo, Zea mays; conditions: preemergence; for Plant response rating, Corn: 125 g ai/ha, scale 0 to 100, 0 = no effect, 100 = complete control
How it was run: as §2

oilseed rape = experiment: Test C preemergence; type: in vivo, Brassica napus; conditions: preemergence; for Plant response rating, Oilseed Rape: 125 g ai/ha, scale 0 to 100, 0 = no effect, 100 = complete control
How it was run: as §2

[11] = Postemergence, 500 g ai/ha, 0 to 100 scale (0 no effect, 100 complete control)
[12] = postemergence, 125 g ai/ha, about 10 days, visual rating on 0 to 100 scale (0 no effect, 100 complete control)
[13] = 125 g ai/ha, 0 to 100 scale, 0 no effect, 100 complete control
[14] = 500 g ai/ha, 0 to 100 scale (0 no effect, 100 complete control)
[15] = 31 g ai/ha, visual rating, scale 0 to 100 (0 no effect, 100 complete control), 13 to 15 days
[16] = 62 g ai/ha, scale 0 to 100 (0 no effect, 100 complete control), 13 to 15 days
[17] = 250 g ai/ha, scale 0 to 100, 0 is no effect, 100 is complete control

Structure (SMILES) | Barnyardgrass plant response rating (0 to 100 scale, 0 is no effect, 100 is complete control) (barnyardgrass [1]) | Barnyardgrass plant response rating (barnyardgrass [1]) | Crabgrass, Large plant response rating (0 to 100 scale) (crabgrass, large [2]) | Crabgrass, Large plant response rating (crabgrass, large [2]) | Morningglory plant response rating (0 to 100 scale) (morningglory) | Morningglory plant response rating (morningglory) | Pigweed plant response rating (0 to 100 scale) (pigweed [3]) | Pigweed plant response rating (pigweed [3]) | Velvetleaf plant response rating (0 to 100 scale) (velvetleaf [4]) | Velvetleaf plant response rating (velvetleaf [4]) | Corn plant response rating (0 to 100 scale) (corn [5]) | Corn plant response rating (corn [5]) | Barnyardgrass plant response rating (barnyardgrass [6]; [11]) | Barnyardgrass plant response rating (barnyardgrass [6]; [12]) | Crabgrass, Large plant response rating (crabgrass, large [7]; [11]) | Crabgrass, Large plant response rating (crabgrass, large [7]; [12]) | Pigweed plant response rating (pigweed [8]; [13]) | Pigweed plant response rating (pigweed [8]; [14]) | Velvetleaf plant response rating (velvetleaf [9]; [13]) | Velvetleaf plant response rating (velvetleaf [9]; [14]) | further results
CCNC(=O)c1cc(CC)n(Cc2ccnc(C(F)(F)F)c2)n1 [Compound 196] | 90 | 100 | 100 | 100 | 100 | 100 | 100 | 100 | 80 | 100 | 10 | 90 | 90 | 90 | 100 | 90 | 100 | 100 | 80 | 100 | Plant response rating, Rice (rice): 20; Blackgrass plant response rating (blackgrass; [15]): 85; Blackgrass plant response rating (blackgrass; [16]): 90; Plant response rating, Blackgrass (blackgrass; 13 to 15 days): 90; Blackgrass plant response rating (blackgrass; [17]): 90; Wheat plant response rating (wheat; [15]): 0; Wheat plant response rating (wheat; [16]): 65; Plant response rating, Wheat (wheat; 13 to 15 days): 85; Wheat plant response rating (wheat; [17]): 80; Corn plant response rating (corn [10]; [15]): 5; Corn plant response rating (corn [10]; [16]): 5; Plant response rating, Corn (corn [10]; 13 to 15 days): 65; Corn plant response rating (corn [10]; [17]): 98; Oilseed Rape plant response rating (oilseed rape; [15]): 90; Oilseed Rape plant response rating (oilseed rape; [16]): 98; Plant response rating, Oilseed Rape (oilseed rape; 13 to 15 days): 100; Oilseed Rape plant response rating (oilseed rape; [17]): 100
Cc1cc(C(=O)NC(C)C)nn1Cc1ccnc(C(F)(F)F)c1 [Compound 197] | 90 | 100 | 100 | 100 | 100 | 100 | 100 | 100 | 70 | 100 | 0 | 90 | 100 | 80 | 100 | 80 | 100 | 100 | 30 | 80 | Plant response rating, Rice (rice): 10; Blackgrass plant response rating (blackgrass; [15]): 0; Blackgrass plant response rating (blackgrass; [16]): 85; Plant response rating, Blackgrass (blackgrass; 13 to 15 days): 90; Blackgrass plant response rating (blackgrass; [17]): 90; Wheat plant response rating (wheat; [15]): 0; Wheat plant response rating (wheat; [16]): 0; Plant response rating, Wheat (wheat; 13 to 15 days): 5; Wheat plant response rating (wheat; [17]): 80; Corn plant response rating (corn [10]; [15]): 5; Corn plant response rating (corn [10]; [16]): 5; Plant response rating, Corn (corn [10]; 13 to 15 days): 45; Corn plant response rating (corn [10]; [17]): 95; Oilseed Rape plant response rating (oilseed rape; [15]): 80; Oilseed Rape plant response rating (oilseed rape; [16]): 95; Plant response rating, Oilseed Rape (oilseed rape; 13 to 15 days): 95; Oilseed Rape plant response rating (oilseed rape; [17]): 100
CCCNC(=O)c1cc(CCC)n(Cc2cc(C(F)(F)F)nn2C)n1 [Compound 198] | 100 | 100 | 100 | 100 | 100 | 100 | 100 | 100 | 30 | 100 | 0 | 90 | 100 | 90 | 100 | 90 | 100 | 100 | 30 | 100 | Plant response rating, Rice (rice): 60; Blackgrass plant response rating (blackgrass; [15]): 85; Blackgrass plant response rating (blackgrass; [16]): 90; Plant response rating, Blackgrass (blackgrass; 13 to 15 days): 90; Blackgrass plant response rating (blackgrass; [17]): 90; Wheat plant response rating (wheat; [15]): 5; Wheat plant response rating (wheat; [16]): 35; Plant response rating, Wheat (wheat; 13 to 15 days): 90; Wheat plant response rating (wheat; [17]): 90; Corn plant response rating (corn [10]; [15]): 5; Corn plant response rating (corn [10]; [16]): 55; Plant response rating, Corn (corn [10]; 13 to 15 days): 85; Corn plant response rating (corn [10]; [17]): 98; Oilseed Rape plant response rating (oilseed rape; [15]): 95; Oilseed Rape plant response rating (oilseed rape; [16]): 100; Plant response rating, Oilseed Rape (oilseed rape; 13 to 15 days): 100; Oilseed Rape plant response rating (oilseed rape; [17]): 100
CCc1cc(C(=O)NCC2CC2)nn1Cc1ccnc(C(F)(F)F)c1 [Compound 199] | 100 | 100 | 100 | 100 | 90 | 100 | 100 | 100 | 100 | 100 | 70 | 90 | 90 | 70 | 90 | 90 | 100 | 100 | 80 | 90 | Plant response rating, Rice (rice): 45; Blackgrass plant response rating (blackgrass; [15]): 90; Blackgrass plant response rating (blackgrass; [16]): 90; Plant response rating, Blackgrass (blackgrass; 13 to 15 days): 90; Blackgrass plant response rating (blackgrass; [17]): 90; Wheat plant response rating (wheat; [15]): 60; Wheat plant response rating (wheat; [16]): 85; Plant response rating, Wheat (wheat; 13 to 15 days): 90; Wheat plant response rating (wheat; [17]): 90; Corn plant response rating (corn [10]; [15]): 20; Corn plant response rating (corn [10]; [16]): 65; Plant response rating, Corn (corn [10]; 13 to 15 days): 75; Corn plant response rating (corn [10]; [17]): 90; Oilseed Rape plant response rating (oilseed rape; [15]): 80; Oilseed Rape plant response rating (oilseed rape; [16]): 95; Plant response rating, Oilseed Rape (oilseed rape; 13 to 15 days): 100; Oilseed Rape plant response rating (oilseed rape; [17]): 100
